The data set can be described thus: mn = molality of the nth substance listed, in mol/kg. Conditions: 298.15 K, Pendant drop shape, m2 = 0.

The structures appear in SMILES notation. Numbers after ± are expanded uncertainties.

Usually surface tension liquid-gas stands for the work needed to enlarge the surface of a liquid by unit area.

With `O` [water] + CCCCCCCCCCCCCC[N+](C)(C)CCCC[N+](C)(C)CCCCCCCCCCCCCC.[Br-].[Br-], the surface tension liquid-gas was determined as 71.98 ± 16 mN/m.
